Results reported in paper PMC10917667, “Targeted protein degradation via intramolecular bivalent glues” (Nature, 2024).

Target: T1, BRD4 (BRD4^Tandem) (Homo sapiens, UniProt O60885)
T1 construct: BRD4^Tandem (residues 43–459), BD1 and BD2 with native linker; with DCAF16–DDB1(ΔBPB)–DDA1
Assay: cryo-EM ternary structure ([…] Å); alphaLISA displacement ([…] with DCAF16, […] alone); ITC; TR-FRET
Type: binding

COC(=O)C[C@@H]1N=C(c2ccc(-c3ccc(C(=O)NCc4ccc(S(=O)(=O)Nc5ccc(C)c6c(C#N)c[nH]c56)cc4)cc3)cc2)c2c(sc(C)c2C)-n2c(C)nnc21 [IBG1]
IC50: 12.8 nM
